Measured values from the NIST ThermoML archive (doi:10.1021/je200150r).
± gives the expanded uncertainty stated by the source.

Tests used:
[1] = 101 kPa, Liquid; for viscosity: Capillary tube (Ostwald / Ubbelohde) method; for mass density: Pycnometric method
[2] = xn = mol fraction of the nth substance listed; details: 101 kPa, Liquid, x2 = 0; for viscosity: Capillary tube (Ostwald / Ubbelohde) method; for mass density: Pycnometric method

## OCc1ccccc1 [benzenemethanol]
[1]; 303.15 K
  viscosity: 4.689 ± 0.059 mPa·s
  mass density: 1037.6 ± 0.9 kg/m3
[1]; 308.15 K
  viscosity: 4.058 ± 0.051 mPa·s
  mass density: 1033.8 ± 0.9 kg/m3
[1]; 313.15 K
  viscosity: 3.531 ± 0.044 mPa·s
  mass density: 1030.1 ± 0.9 kg/m3
[1]; 318.15 K
  viscosity: 3.103 ± 0.039 mPa·s
  mass density: 1026.3 ± 0.9 kg/m3
[1]; 323.15 K
  viscosity: 2.747 ± 0.035 mPa·s
  mass density: 1022.5 ± 0.9 kg/m3

## CCC(C)=O [butanone]
[1]; 303.15 K
  viscosity: 0.362 ± 0.005 mPa·s
  mass density: 794 ± 0.9 kg/m3
[1]; 308.15 K
  viscosity: 0.345 ± 0.005 mPa·s
  mass density: 788.8 ± 0.9 kg/m3
[1]; 313.15 K
  viscosity: 0.33 ± 0.004 mPa·s
  mass density: 783.5 ± 0.9 kg/m3
[1]; 318.15 K
  viscosity: 0.316 ± 0.004 mPa·s
  mass density: 778.3 ± 0.9 kg/m3
[1]; 323.15 K
  viscosity: 0.303 ± 0.004 mPa·s
  mass density: 773 ± 0.9 kg/m3

## CCC(C)=O [butanone] + OCc1ccccc1
[2]; 303.15 K
  viscosity: 0.362 ± 0.005 mPa·s
  mass density: 794 ± 0.9 kg/m3
[2]; 308.15 K
  viscosity: 0.345 ± 0.005 mPa·s
  mass density: 788.8 ± 0.9 kg/m3
[2]; 313.15 K
  viscosity: 0.33 ± 0.004 mPa·s
  mass density: 783.5 ± 0.9 kg/m3
[2]; 318.15 K
  viscosity: 0.316 ± 0.004 mPa·s
  mass density: 778.3 ± 0.9 kg/m3
[2]; 323.15 K
  viscosity: 0.303 ± 0.004 mPa·s
  mass density: 773 ± 0.9 kg/m3
